What was measured:
Foxp3 target genes = test: RNA-seq and gene set enrichment analysis in Treg cells; format: cell-based, mouse
Description: For large scale Treg culture, Tregs were first expanded in Rosa-Cas9/Foxp3^Thy1.1 mice by injecting IL-2:IL-2 antibody immune complex according protocol described in Webster et. al (J Exp Med 206, 751-760, 2009). Spleen and lymph node Treg cells were labeled with PE-conjugated Thy1.1 antibody and isolated by magnetic selection using anti-PE microbeads (Mitenyl #130-048-801). All isolated Treg cells were activated by plate bound anti-CD3 and anti-CD28 antibodies and cultured with X-VIVO® 20 media (LONZA #04-448Q) supplemented by 1× Pen/Strep, 1× Sodium pyruvate, 1× HEPES, 1× GlutaMax™, 55 μM beta-mercaptoethanol in the presence of IL-2 at 500 units/mL. For experiments with Brd9 degradation, Treg cells were treated at day 0 with 2.5 μM dBRD9 (Tocris #6606) and cultured for four days for RNA- and ChIP-seq and 0.16-10 μM treated at day 0 and cultured dBRD9 for four days for Foxp3 MFI, cell viability and cell proliferation assays. Live cells were enriched by Ficoll-Paque® 1.084 (GE Health 17-5446-02) for RNA-seq and ChIP-seq.
RNA from 1-3×10^6 cells was extracted and purified with TRIzol™ reagent (Thermo Fisher) according to manufacturer's instructions. RNA-seq libraries were prepared using Illumina® TruSeq® Stranded mRNA kit following manufacturer's instructions with 5 μg of input RNA.
Single-end 50 bp reads were aligned to the mouse genome mm10 using STAR alignment tool (V2.5) (Dobin et al., Bioinformatics 29:15-21, 2013). RNA expression was quantified as raw integer counts using analyzeRepeats.pl in HOMER (Heinz et al., Mol Cell 38:576-589, 2010) using the following parameters: -strand both -count exons -condenseGenes -noadj. To identify differentially expressed genes, getDiffExpression.pl in HOMER was used, which uses the DESeq2R package to calculate the biological variation within replicates. Cut-offs were set at log 2 FC=0.585 and FDR at 0.05 (Benjamin-Hochberg). Principal Component Analysis (PCA) was performed with the mean of transcript per million (TPM) values using Cluster 3.0 with the following filter parameters: at least one observation with absolute value equal or greater than two and gene vector of four. TPM values were log transformed then centered on the mean.
GSEA software (Mootha et al., Nat Genet 34:267-273, 2003; Subramanian et al., PNAS 102:15545-15550, 2005) was used to perform the analyses with the following parameters: number of permutations=1000; enrichment statistic=weighted; and metric for ranking of genes=difference of classes (Input RNA-seq data was log-transformed). For GSEA analysis, input RNA-seq data contained the normalized log-transformed reads of the 1,325 differentially expressed genes (DEGs) in sgFoxp3/sgNT Treg cells. The compiled gene list included GSEA Gene Ontology, Immunological Signature, Curated Gene, and the up and down DEGs in sgBrd9/sgNT Treg cells.
For gene expression analysis in FIG. 42F, Foxp3 ChIP-seq tags were quantified at the union of sites bound by Foxp3 in sgNT and sgBrd9 using the annotatePeaks.pl command in HOMER with size-given and each site was annotated to a gene by mapping to the nearest TSS. Sites were ranked from least to largest Foxp3 ChIP-seq Log2FC in sgBrd9 vs sgNT and divided into quartiles. Gene expression for the genes in the top and bottom quartiles (Brd9-dependent and -independent, respectively) was then plotted using RNA-seq data from Treg cells transduced with sgBrd9, sgSmarcd1, or sgPbrm1 compared to sgNT. […]

Treg cells = test: In vitro Treg suppression assay; format: cell-based, mouse; settings: sgRNA transduced Treg cells plus MIGR-Foxp3
Description: Treg cells were transduced by retrovirus expressing sgRNA targeting gene of interest and cultured in X-VIVO® complete media supplemented with IL-2 (500 U/ml). Four days after transduction, transduced cells were […] a fluorescence-activated cell sorter (FACS). CD45.1+ naive CD4 T cells (CD4^+CD25^−CD44^loCD62^hi) were labeled with CellTrace™ Violet (Thermo Fisher Scientific #C34571) in different ratio in the presence of irradiated T cell depleted spleen cells as antigen-presenting cells (APC). Three days later, Treg suppression function was measured by the percentage of non-dividing cells within the CD45.1^+ effector T cell population. For dBRD9 treatment experiment, dBRD9 was first dissolved in DMSO (10 mM stock) and added into Treg:Teff:APC mixture at 2.5 μM. For Foxp3 overexpression rescue experiment, Treg cells were first transduced with sgNT or sgBrd9 at 24 hour post-activation, and then transduced with MIGR empty vector or MIGR-Foxp3 at 48 hour post-activation. Double transduced Treg cells were FACS sorted on day 4 based on NGFR+ and GFP+ markers and then mixed with CellTrace™ labeled effector T cells in the presence of APC. Treg suppression readout was measured after three days of co-culture.

Rag1^−/− mice = test: Adoptive T cell transfer-induced colitis model; format: in vivo, mouse
Description: Treg cells were transduced by retrovirus expressing sgRNA targeting gene of interest, and cultured in X-VIVO® complete media and IL-2 (500 U/ml). Four days after transduction, the NGFR^+ transduced Treg cells were FACS sorted before transferred into recipient mice. To induce colitis, 2 million effector T cells (CD45.1^+CD4^+CD25^−CD45RB^hi) and 1 million sgRNA transduced Treg cells (CD45.2^+ CD4^+ Thy1.1^+ NGFR^+) were mixed together and transferred into Rag1^−/− recipient mice. The body weight of recipient mice was monitored weekly for signs of wasting symptoms. Mice were harvested 7 weeks after T cell transfer. Spleens were used for profiling immune cell populations by FACS. Colons were collected for histopathological analysis.
Histopathological analysis was performed in a blinded manner and scored using the following criteria: eight parameters were used, including (i) the degree of inflammatory infiltrate in the LP (0-3); (ii) Goblet cell loss (0-2); (iii) reactive epithelial hyperplasia/atypia with nuclear changes (0-3); (iv) the number of IELs in the epithelial crypts (0-3); (v) abnormal crypt architecture (distortion, branching, atrophy, crypt loss) (0-3); (vi) number of crypt abscesses (0-2); (vii) mucosal erosion to frank ulcerations (0-2) and (viii) submucosal spread to transmural involvement (0-2). The severity of lesion was scored independently in 3 regions (proximal, middle and distal colon) over a maximal score of 20. The overall colitis score was based as the average of each regional score (maximal score of 20).

sgBrd9: sgRNA targeting Brd9, ATTAACCGGTTTCTCCCGGG (SEQ ID NO: 12) (expressed or natural sequence)
enrichment of increased/decreased genes among sgFoxp3 regulated genes (GSEA) (Foxp3 target genes; sgBrd9/sgNT vs sgFoxp3/sgNT Treg cells): significantly enriched among genes that increase upon sgFoxp3 targeting
gene expression of Brd9-dependent vs Brd9-independent Foxp3 target genes (Foxp3 target genes; sgRNA transduced Treg cells vs sgNT): significantly more affected
Treg suppressor activity with ectopic expression of Foxp3 (Treg cells): partially restored Treg suppressor activity to a level comparable to sgNT controls
protection of recipient mice from body weight loss (Rag1^−/− mice; co-transfer of Teff and sgRNA transduced Treg cells into Rag1^−/− mice): failed to protect recipients from losing weight
Foxp3^+ cell frequencies within the CD45.2^+CD4^+ transferred Treg population (Rag1^−/− mice; end point of colitis model): reduced Foxp3^+ cell frequencies
colitis pathology (Rag1^−/− mice; seven weeks after transfer, vs control Treg cells): significant colitis pathology

From patent publication US20240150755A1, “MODULATING REGULATORY T CELL FUNCTION IN AUTOIMMUNE DISEASE AND CANCER” (Salk Institute for Biological Studies, priority 2021, published 2024)
